Results as given in patent US7084158B2, “Substituted propargylamines” (Bayer Cropscience S.A., priority 2001, dated 2006).

Columns and labels:
Type in all cases: in vivo
Design in all cases: key: compounds were considered to be active when, at a concentration of 500 ppm or less, they had an activity on the harmful organisms of 50% or more
Aphis fabae = assay: Example R: field bean, root-systemic activity on black bean aphids; conditions: 500 ppm or less; solution pipetted into bottle; after 3 and 6 days
Description: Germinated field bean seeds (Vicia faba) with radicles were transferred into brown glass bottles filled with tap water. Four milliliters of an aqueous solution of the formulated compound to be examined were pipetted into the brown glass bottle. The field bean was then heavily populated with approximately 100 black bean aphids (Aphis fabae). Plant and animals were then stored in a climatized chamber (16 hours of light/day, 25° C., 40–60% relative atmospheric humidity). After 3 and 6 days of storage, the root-systemic activity of the compound on the aphids was determined (mortality). The following examples were active: 184, 186, 305, 220, 265.

[1] = tested on: Diabrotica undecimpunctata; assay: Example C: corn rootworm eggs with maize corn, mortality; conditions: 500 ppm or less; 4-5-day-old eggs; after 6 days
Nilaparvata lugens = assay: Example A: rice leaf dip, leafhopper larvae mortality; conditions: 500 ppm or less; L3 larvae on dipped rice plants; after 6 days
Description: The leaves of 12 rice plants having a stem length of 8 cm were dipped for 5 seconds into an aqueous solution of the formulated compound to be examined. After the solution had run off, the rice plants treated in this manner were placed into a Petri dish and populated with about 20 larvae (L3 stage) of the rice leafhopper species Nilaparvata lugens. The Petri dish was closed and then stored in a climatized chamber (16 hours of light/day, 25° C., 40–60% relative atmospheric humidity). After 6 days of storage, the mortality among the leafhopper larvae was determined. The compounds of the following examples were active: Nos. 29, 32, 42, 43, 51, 70, 84, 1002, 1004, 1005, 1040, 180, 184, 193, 197, 203, 209, 1059, 264, 265, 1066.

Heliothis virescens [2] = assay: Example B: tobacco budworm eggs on filter paper/insect diet, mortality; conditions: 500 ppm or less; 24-hour-old eggs dipped, diet treated; after 6 days
Spodoptera littoralis = assay: Example G: treated L2 larvae and insect diet, Egyptian cotton leafworm mortality; conditions: 500 ppm or less, after 6 days
Description: A Petri dish whose bottom was covered with filter paper and which contained about 5 ml of insect diet is prepared. Five L2 larvae of the Egyptian cotton leafworm (Spodoptera littoralis) were counted into a small beaker. 200 μl of an aqueous solution of the formulated preparation to be examined were pipetted into the beaker. The treated larvae were then poured into the Petri dish, and a further 200 μl of the aqueous solution were distributed over the insect diet. The Petri dish was closed and then stored at about 25° C. in a climatized chamber. After 6 days of storage, the effect of the compound on the larvae was determined (mortality). The compounds of the following examples were active: 29, 70, 60, 159, 1005, 1040, 1042, 1044, 1045, 1046, 1047.

[3] = tested on: Trialeurodes vaporariorum; assay: Example AD: bush beans sprayed, white fly larvicidal action; conditions: 500 ppm or less; bush beans sprayed after hatching; after 11 days
Description: For oviposition, bush beans (Phaseolus vulgaris) were populated for 48 hours with adults of the white fly (Trialeurodes vaporariorum). After the larvae had hatched, the plants were sprayed to run-off point with an aqueous solution of the formulated compound to be examined. After 11 days, the larvicidal action was determined. The following examples were active: 1036, 70, 60, 1040, 197.

Spodoptera exigua [4] = assay: Example Z: cotton leaves with larvae sprayed, sugar beet armyworm mortality; conditions: 500 ppm or less; cotton leaves populated then sprayed; L2 larvae; after 4 days
Description: Cotton leaves were populated with 5 L2 larvae of the sugar beet armyworm (Spodoptera exigua) and then sprayed with an aqueous solution of the formulated compound to be examined. After 4 days of storage at about 23° C., the mortality among the larvae was determined. The following examples were active: 1036, 70, 60, 1047, 197.

Heliothis virescens [5] = assay: Example AB: cotton leaves with larvae sprayed, tobacco budworm mortality; conditions: 500 ppm or less; cotton leaves with L2 larvae sprayed; after 4 days
Description: Cotton leaves were placed into a Petri dish, populated with 5 L2 larvae of the American tobacco budworm (Heliothis virescens) and sprayed with an aqueous solution of the formulated compound to be examined. After 4 days of storage at about 25° C., the mortality among the larvae was determined. The following examples were active: 70, 1047, 197.

[6] = tested on: Leptinotarsa decemlineata; assay: Example L: potato leaves and larvae sprayed, Colorado beetle mortality; conditions: 500 ppm or less, after 4 days
Description: Potato leaves were populated with larvae of the Colorado beetle (Leptinotarsa decemlineata). Leaves and larvae were then sprayed with an aqueous solution of the formulated compound to be examined. After 4 days of storage at about 25° C., the effect of the compound on the larvae was determined (mortality). The compounds of the following examples were active: 60, 70, 1002, 1004, 1005, 1036, 1047, 197.

Spodoptera exigua [7] = assay: Example Y: cotton plants sprayed, cut leaves, sugar beet armyworm mortality; conditions: 500 ppm or less, leaves cut after drying, L2 larvae, after 4 days
Description: Cotton plants were sprayed with an aqueous solution of the formulated compound to be examined. After drying, leaves were cut off, placed into a Petri dish and populated with 5 L2 larvae of the sugar beet armyworm (Spodoptera exigua). After 4 days of storage at about 23° C., the mortality among the larvae was determined. The following examples were active: 1036, 70, 60, 1047, 197.

Meloidogyne incognita = assay: Example H: root gall nematode larvae immobilization (contact activity); conditions: 500 ppm or less; 2nd stage larvae; 6 days permanent exposure
Description: In a glass vessel, an aqueous solution of the formulated compound to be examined was added to about 3000 freshly hatched active (mobile) larvae (2nd development stage) of the root gall nematode (Meloidogyne incognita) (final volume 20 ml). After 6 days of permanent exposure of the nematode larvae, the percentage of the individual larvae immobilized by the activity of the compound was determined in comparison to the untreated controls (contact activity). The compounds of the following examples were active: 39, 52, 159, 161, 162, 163, 164, 165, 1045, 1046, 1047, 179, 183, 187, 1048, 298, 206, 208, 227, 230, 1061, 237, 238, 245, 250, 255, 256, 260, 268, 269, 274, 275, 288, 290.

Spodoptera exigua [8] = assay: Example S: treated L2 larvae and insect diet, sugar beet army worm mortality; conditions: 500 ppm or less, after 6 days
Description: A Petri dish whose bottom was covered with filter paper and which contains about 5 ml of insect diet is prepared. Five L2 larvae of sugar beet army worm (Spodoptera exigua) were counted into a small beaker. 200 μl of an aqueous solution of the formulated compound to be examined were pipetted into the beaker. The treated larvae were then poured into the Petri dish and a further 200 μl of the aqueous solution were distributed over the insect diet. The Petri dish was closed and then stored at 25° C. in a climatized chamber. After 6 days of storage, the mortality among the larvae was determined. The following examples were active: 1036, 175, 184, 1051, 1054, 1055, 234, 1057, 1059, 1060, 1063, 243, 245, 251, 257, 259, 266, 1065, 1067, 290, 291.

Rhipicephalus sanguineus = assay: Example AF: treated filter paper, tick larvae mortality; conditions: 500 ppm or less, after 24 hours
Description: The formulated compound was pipetted onto filter paper. After the solvent had evaporated, 20–30 tick larvae (Rhipicephalus sanguineus) were placed onto the filter paper. After 24 hours at about 25° C., the effect of the compound on the ticks was determined (mortality). The following examples were active: 197, 1057.

Ctenocephalides felis = assay: Example M: cat fleas fed with treated cattle blood, mortality; conditions: 500 ppm or less; adult fleas fed blood-preparation mixture; after 48 hours
Description: The formulated compound was mixed with defibrinated cattle blood. 10 adult cat fleas (Ctenocephalides felis) were fed with this blood-preparation mixture. After 48 hours at about 38° C., the effect of the compound on the fleas was determined (mortality). The compounds of the following examples were active: 70, 1002, 1004, 1005, 1036, 60, 197, 1057.

Aedes aegypti = assay: Example AG: microtiter plate, yellow fever mosquito larvicidal activity; conditions: 500 ppm or less, after 3 days

CC1CCN(CC#Cc2cccc(-c3ccc([N+](=O)[O-])cc3)c2)CC1 [Example 220]
active: root-systemic activity on the aphids (mortality) (Aphis fabae)

CC1CCN(CC#Cc2ccc(C(F)(F)F)c(Cl)c2)CC1.CCCCCCCCC(=O)O [Example 1040]
active: effect on the eggs and hatched larvae (mortality) [1] | mortality among the leafhopper larvae (Nilaparvata lugens) | effect on the eggs and hatched larvae (mortality) (Heliothis virescens [2]) | effect on the larvae (mortality) (Spodoptera littoralis) | larvicidal action [3]

CC1CCN(CC#Cc2cc(C(F)(F)F)cc(C(F)(F)F)n2)CC1.Cl [Example 1047]
active: effect on the eggs and hatched larvae (mortality) [1] | effect on the eggs and hatched larvae (mortality) (Heliothis virescens [2]) | mortality among the larvae (Spodoptera exigua [4]) | mortality among the larvae (Heliothis virescens [5]) | effect on the larvae (mortality) [6] | effect on the larvae (mortality) (Spodoptera littoralis) | mortality among the larvae (Spodoptera exigua [7]) | percentage of larvae immobilized (contact activity) (Meloidogyne incognita)

CC1CCN(CC#Cc2cc(C(F)(F)F)cc(Cl)n2)CC1.Cl [Example 1057]
active: effect on the eggs and hatched larvae (mortality) [1] | mortality among the larvae (Spodoptera exigua [8]) | effect on the eggs and hatched larvae (mortality) (Heliothis virescens [2]) | effect on the ticks (mortality) (Rhipicephalus sanguineus) | effect on the fleas (mortality) (Ctenocephalides felis) | larvicidal activity (Aedes aegypti)
